According to the NIST ThermoML archive (doi:10.1016/j.fluid.2015.07.004):
Numbers after ± are expanded uncertainties.

Assays:
[1] = mn = molality of the nth substance listed, in mol/kg; conditions: 298 K, 100 kPa, Liquid, Vibrating tube method
[2] = osmotic coefficient (dimensionless); mn = molality of the nth substance listed, in mol/kg; conditions: 100 kPa, Liquid, boiling point elevation

CN(C)CC(=O)O [(Dimethylamino)acetic acid] + O
[1]
Conditions | mass density [kg/m3]
m1 = 0.4001 | 1005.64 ± 1.1
m1 = 1.003 | 1016.88 ± 1.2
m1 = 1.401 | 1024.01 ± 1.2
m1 = 1.992 | 1033.69 ± 1.2

[2]
Conditions | osmotic coefficient
310.15 K, m1 = 0.0986 | 1.069 ± 0.0087
310.15 K, m1 = 0.2005 | 1.035 ± 0.0088
310.15 K, m1 = 0.4001 | 1.072 ± 0.0088
310.15 K, m1 = 0.8024 | 1.076 ± 0.0094
310.15 K, m1 = 1.003 | 1.126 ± 0.01
310.15 K, m1 = 1.193 | 1.141 ± 0.011
310.15 K, m1 = 1.401 | 1.147 ± 0.0097
310.15 K, m1 = 1.585 | 1.154 ± 0.0098
310.15 K, m1 = 1.797 | 1.169 ± 0.01
310.15 K, m1 = 1.992 | 1.206 ± 0.011
323.15 K, m1 = 0.2056 | 0.981 ± 0.0084
323.15 K, m1 = 0.2889 | 0.989 ± 0.0084
323.15 K, m1 = 0.4998 | 1.008 ± 0.0087
323.15 K, m1 = 1.015 | 1.021 ± 0.0088
323.15 K, m1 = 1.5 | 1.114 ± 0.009

NC(=O)NCCC[C@H](N)C(=O)O [N5-aminocarbonyl-L-ornithine] + O
[1]
Conditions | mass density [kg/m3]
m1 = 0.1989 | 1008.22 ± 1.1
m1 = 0.3842 | 1018.59 ± 1.2
m1 = 0.6007 | 1029 ± 1.2

osmotic coefficient, [2]
Conditions | m1 = 0.1011 | m1 = 0.1989 | m1 = 0.2016 | m1 = 0.3942 | m1 = 0.402 | m1 = 0.4915 | m1 = 0.6001 | m1 = 0.6892
310.15 K | 1.011 ± 0.008 | 1.003 ± 0.008 | – | 0.9986 ± 0.008 | – | 0.9973 ± 0.008 | – | 1.002 ± 0.008
323.15 K | – | – | 1.007 ± 0.008 | – | 1.001 ± 0.008 | – | 0.9931 ± 0.008 | –

C[N+](C)(C)[O-] [trimethylamine oxide] + O
[1]
Conditions | mass density [kg/m3]
m1 = 0.406 | 998.235 ± 1.1
m1 = 0.7971 | 999.133 ± 1.1
m1 = 1.199 | 1000.21 ± 1.1
m1 = 1.59 | 1001.54 ± 1.1
m1 = 2.002 | 1002.01 ± 1.1
m1 = 2.445 | 1003.03 ± 1.1

[2]
Conditions | osmotic coefficient
310.15 K, m1 = 0.1988 | 0.9879 ± 0.0081
310.15 K, m1 = 0.406 | 1.034 ± 0.0082
310.15 K, m1 = 0.62 | 1.062 ± 0.0084
310.15 K, m1 = 0.7971 | 1.152 ± 0.0097
310.15 K, m1 = 0.9921 | 1.133 ± 0.0094
310.15 K, m1 = 1.199 | 1.15 ± 0.0098
310.15 K, m1 = 1.392 | 1.192 ± 0.011
310.15 K, m1 = 1.59 | 1.31 ± 0.014
323.15 K, m1 = 0.5008 | 1.076 ± 0.0085
323.15 K, m1 = 1.015 | 1.171 ± 0.01
323.15 K, m1 = 1.5 | 1.27 ± 0.013

OC[C@H]1O[C@H](O[C@H]2O[C@H](CO)[C@@H](O)[C@H](O)[C@H]2O)[C@H](O)[C@@H](O)[C@@H]1O [α-trehalose] + O
[1]
Conditions | mass density [kg/m3]
m1 = 0.1997 | 1022.61 ± 1.2
m1 = 0.3989 | 1046.2 ± 1.2
m1 = 0.5995 | 1068.34 ± 1.2
m1 = 0.7914 | 1087.59 ± 1.3

[2], 310.15 K
Conditions | osmotic coefficient
m1 = 0.0499 | 1.031 ± 0.0081
m1 = 0.0998 | 1.036 ± 0.0081
m1 = 0.1997 | 1.02 ± 0.008
m1 = 0.2995 | 0.999 ± 0.008
m1 = 0.3989 | 1.01 ± 0.008
m1 = 0.4992 | 1.022 ± 0.008
m1 = 0.5995 | 0.9904 ± 0.008
m1 = 0.6932 | 1.019 ± 0.008
m1 = 1.469 | 1.063 ± 0.0083
m1 = 1.982 | 1.08 ± 0.0085
